The target of one assay is Acetylcholinesterase (Tetronarce californica, UniProt P04058). The assay is described as follows: Acetylcholinesterase Assay. Particulars: pH 7.7. The method, then:
Total volume of the reaction mixture was 100 µL. It contained 60 µL Na2HPO4 buffer with concentration of 50 mM and pH 7.7. 10 µL test compound (0.5 mM well-1) was added, followed by the addition of 10 µL (0.005 unit well-1) enzyme. […] Then contents were pre-incubated for 10 min at 37 °C. The reaction was initiated by the addition of 10 µL of 0.5 mM well-1 substrate (acetylthiocholine iodide), followed by the addition of 10 µL DTNB (0.5 mM well-1). […] All experiments were carried out with their respective controls in triplicate.

For another assay, the target named is Cholinesterase (Homo sapiens, UniProt P06276). The assay is described as follows: Butyrylcholinesterase Assay. Particulars: pH 7.7. The protocol:
Total volume of the reaction mixture was 100 µL containing 60 µL, Na2HPO4 buffer, 50 mM and pH 7.7. Ten µL test compound 0.5 mM well-1 was added followedby the addition of 10 µL (0.5 unit well-1) BChE (Sigma Inc.). […] The reaction was initiated by the addition of 10 µL of 0.5 mM well-1 substrate (butyrylthiocholine chloride). Followed by the addition of 10 µL DTNB, 0.5 mM well-1. […] All experiments were carried out with their respective controls in triplicate.

This is an account of results in BindingDB's records for doi:10.1016/j.bioorg.2016.07.005 (Hazara University, 2016).

Molecules are shown by their SMILES.

Sequence of Acetylcholinesterase (P04058 whole entry): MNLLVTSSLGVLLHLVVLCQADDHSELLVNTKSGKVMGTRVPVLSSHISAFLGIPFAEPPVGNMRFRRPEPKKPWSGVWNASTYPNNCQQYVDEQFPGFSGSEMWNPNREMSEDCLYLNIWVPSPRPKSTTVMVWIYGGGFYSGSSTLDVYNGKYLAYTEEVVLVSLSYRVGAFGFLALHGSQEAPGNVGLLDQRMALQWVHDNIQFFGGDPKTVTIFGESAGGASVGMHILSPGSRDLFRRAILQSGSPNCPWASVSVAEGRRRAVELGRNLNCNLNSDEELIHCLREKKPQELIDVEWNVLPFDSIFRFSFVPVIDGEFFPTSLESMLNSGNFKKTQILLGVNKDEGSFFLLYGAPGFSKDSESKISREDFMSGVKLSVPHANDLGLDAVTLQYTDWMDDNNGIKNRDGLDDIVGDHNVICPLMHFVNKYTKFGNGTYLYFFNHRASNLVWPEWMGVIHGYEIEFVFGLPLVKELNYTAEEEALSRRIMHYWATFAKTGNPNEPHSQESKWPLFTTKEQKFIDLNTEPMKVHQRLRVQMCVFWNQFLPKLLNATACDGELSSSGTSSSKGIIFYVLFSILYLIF
Sequence of Cholinesterase (P06276 whole entry): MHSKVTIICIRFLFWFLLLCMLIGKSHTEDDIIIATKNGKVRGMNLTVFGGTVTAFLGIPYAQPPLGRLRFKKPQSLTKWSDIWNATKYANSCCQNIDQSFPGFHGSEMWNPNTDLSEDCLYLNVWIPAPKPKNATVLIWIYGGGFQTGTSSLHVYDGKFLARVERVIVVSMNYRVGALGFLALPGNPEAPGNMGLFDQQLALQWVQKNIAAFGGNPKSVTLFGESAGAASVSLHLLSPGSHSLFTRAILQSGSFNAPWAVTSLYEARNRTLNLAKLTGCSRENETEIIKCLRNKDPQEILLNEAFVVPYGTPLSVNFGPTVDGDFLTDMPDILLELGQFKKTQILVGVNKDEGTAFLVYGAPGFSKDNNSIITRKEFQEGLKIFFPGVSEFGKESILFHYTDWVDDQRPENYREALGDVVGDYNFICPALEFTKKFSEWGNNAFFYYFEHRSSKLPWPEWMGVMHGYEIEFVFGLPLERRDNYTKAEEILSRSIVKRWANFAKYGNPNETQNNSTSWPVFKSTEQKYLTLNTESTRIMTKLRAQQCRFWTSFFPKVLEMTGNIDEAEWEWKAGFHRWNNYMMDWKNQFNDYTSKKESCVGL

Turning to `O=C(N/N=C\c1ccc(Br)cc1F)c1ccccc1O` [N'-[(Z)-(4-bromo-2-fluorophenyl)methylidene]-2-hydroxybenzohydrazide (26)], the IC50 (commonly the concentration needed to halve the response being measured) worked out at 369 µM against Acetylcholinesterase and 452 µM on Cholinesterase.

In the case of `CC(C)c1ccc(/C=N\NC(=O)c2ccccc2O)cc1` [2-Hydroxy-N'-[(Z)-(4-isopropylphenyl)methylidene]benzohydrazide (12)], the IC50 on Acetylcholinesterase came out at 39.8 µM; against Cholinesterase, 71.8 µM.

On to `O=C(N/N=C\c1cccc(Br)c1)c1ccccc1O` [N'-[(Z)-(3-bromophenyl)methylidene]-2-hydroxybenzohydrazide (19)], for which the IC50 on Acetylcholinesterase was found to be 156 µM; against Cholinesterase, 121 µM.

The compound `CSc1ccc(/C=N\NC(=O)c2ccccc2O)cc1` [2-Hydroxy-N'-{(Z)-[4-(methylsulfanyl)phenyl]methylidene} benzohydrazide (22)] came in with an IC50 on Acetylcholinesterase of 436 µM.

`O=C(N/N=C\c1cccs1)c1ccccc1O` [2-Hydroxy-N'-[(Z)-2-thienylmethylidene]benzohydrazide (23)] had an IC50 against Acetylcholinesterase of 430 µM.

In the case of `O=C(N/N=C\c1cccc(O)c1)c1ccccc1O` [2-Hydroxy-N'-[(Z)-(3-hydroxyphenyl)methylidene]benzohydrazide (27)], it took 355 µM to reach half-maximal inhibition against Acetylcholinesterase (IC50).

`O=C(N/N=C\c1ccc(F)c(Br)c1)c1ccccc1O` [N'-[(Z)-(3-bromo-4-fluorophenyl)methylidene]-2-hydroxybenzohydrazide (25)] had an IC50 against Acetylcholinesterase of 311 µM.

Regarding `O=C(N/N=C\c1cccc(C(F)(F)F)c1)c1ccccc1O` [2-Hydroxy-N'-{(Z)-[3-(trifluoromethyl)phenyl]methylidene} benzohydrazide (14)], the results for the IC50 against Acetylcholinesterase and on Cholinesterase were 56.1 µM and 112 µM, respectively.

With `O=C(N/N=C\c1cc(Cl)cc(Cl)c1O)c1ccccc1O` [N'-[(Z)-(3,5-dichloro-2-hydroxyphenyl)methylidene]-2-hydroxybenzohydrazide (24)], the IC50 stood at 8.41 µM against Acetylcholinesterase and 9.22 µM on Cholinesterase.

For `O=C(N/N=C\c1c2ccccc2cc2ccccc12)c1ccccc1O` [(Z)-N'-(anthracen-10-ylmethylene)-2-hydroxybenzohydrazide (10)], on Acetylcholinesterase, the IC50 was found to be 4.12 µM.

As for `CC(C)(C)c1ccc(/C=N\NC(=O)c2ccccc2O)cc1` [N'-{(Z)-[4-(tert-butyl)phenyl]methylidene}-2-hydroxybenzohydrazide (13)], the IC50 on Acetylcholinesterase turned out to be 92.4 µM; against Cholinesterase, 6.51 µM.

`COc1ccc(/C=N\NC(=O)c2ccccc2O)cc1Br` [N'-[(Z)-(3-bromo-4-methoxyphenyl)methylidene]-2-hydroxybenzohydrazide (17)]: the IC50 is 19.8 µM at Acetylcholinesterase and 38.4 µM on Cholinesterase.

For the compound `O=C(N/N=C\c1ccc(Cl)cc1Cl)c1ccccc1O` [N'-[(Z)-(2,4-dichlorophenyl)methylidene]-2-hydroxybenzohydrazide (6)], the IC50 against Acetylcholinesterase is 18.1 µM; against Cholinesterase, 43.2 µM.

In turn, `O=C(N/N=C\c1ccc(O)cc1)c1ccccc1O` [2-Hydroxy-N'-[(Z)-(4-hydroxyphenyl)methylidene]benzohydrazide (28)] displayed an IC50 on Cholinesterase of 424 µM.

As to `CCOc1ccccc1/C=N\NC(=O)c1ccccc1O` [N'-[(Z)-(2-ethoxyphenyl)methylidene]-2-hydroxybenzohydrazide (20)], the IC50 at Acetylcholinesterase was found to be 415 µM; on Cholinesterase, 116 µM.

At Cholinesterase, `COc1cccc(/C=N\NC(=O)c2ccccc2O)c1OC` [N'-[(Z)-(2,3-dimethoxyphenyl)methylidene]-2-hydroxybenzohydrazide (15)] displayed an IC50 of 61.6 µM.

For `O=C(N/N=C\c1ccc(OCc2ccccc2)cc1)c1ccccc1O` [N'-{(Z)-[4-(benzyloxy)phenyl]methylidene}-2-hydroxybenzohydrazide (3)], the results for the IC50 at Acetylcholinesterase and at Cholinesterase were 8.12 µM and 37.8 µM, respectively.

Take `CCCCOc1ccc(/C=N\NC(=O)c2ccccc2O)cc1` [N0-[(Z)-(4-butoxyphenyl)methylidene]-2-hydroxybenzohydrazide (7)]: the IC50 against Acetylcholinesterase amounted to 15.4 µM; on Cholinesterase, 41.8 µM.

Turning to `O=C(N/N=C\c1ccco1)c1ccccc1O` [N'-[(Z)-2-furylmethylidene]-2-hydroxybenzohydrazide (11)], the IC50 on Cholinesterase was 418 µM.

In the case of `O=C(N/N=C\c1ccc(C(F)(F)F)cc1)c1ccccc1O` [2-Hydroxy-N'-{(Z)-[4-(trifluoromethyl)phenyl]methylidene} benzohydrazide (18)], the IC50 at Acetylcholinesterase amounted to 48.5 µM; against Cholinesterase, 213 µM.

Turning to `COc1ccc(/C=N\NC(=O)c2ccccc2O)c(OC)c1` [N'-[(Z)-(2,4-dimethoxyphenyl)methylidene]-2-hydroxybenzohydrazide (9)], the IC50 at Cholinesterase turned out to be 293 µM.

`O=C(N/N=C\c1cc(F)ccc1Br)c1ccccc1O` [N'-[(Z)-(2-bromo-5-fluorophenyl)methylidene]-2-hydroxybenzohydrazide (21)]: the IC50 against Acetylcholinesterase worked out at 312 µM; against Cholinesterase, 267 µM.

For `CCOc1ccc(/C=N\NC(=O)c2ccccc2O)cc1` [N'-[(Z)-(4-ethoxyphenyl)methylidene]-2-hydroxybenzohydrazide (8)], the results for the IC50 against Acetylcholinesterase and at Cholinesterase were 218 µM and 116 µM, respectively.

Take `COc1cccc(OC)c1/C=N\NC(=O)c1ccccc1O` [N'-[(Z)-(2,6-dimethoxyphenyl)methylidene]-2-hydroxybenzohydrazide (2)]: the IC50 at Acetylcholinesterase amounted to 461 µM; against Cholinesterase it was 79.5 µM.

Compound `COc1ccc(/C=N\NC(=O)c2ccccc2O)cc1OCc1ccccc1` [N'-{(Z)-[3-(benzyloxy)-4-methoxyphenyl]methylidene}-2-hydroxybenzohydrazide (16)] yielded a half-maximal inhibitory concentration (IC50) on Cholinesterase of 86.2 µM.
